Data from PubChem BioAssay (NCI).
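Dose response: 5 concentrations. Exposure: 48 h. Format: 96-well plates. Endpoint: linear interpolation; highest concentration if not reached. GI50 = concentration required for 50% inhibition of growth. TGI: concentration producing complete growth inhibition.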

Key:
Test in all cases: NCI-60 cell line screen, 48 h
786-0 renal = system: 786-0 renal
A498 renal = system: A498 renal
A549 NSCLC = system: A549 NSCLC
ACHN renal = system: ACHN renal
BT-549 breast = system: BT-549 breast
CAKI-1 renal = system: CAKI-1 renal
CCRF-CEM leukemia = system: CCRF-CEM leukemia
COLO 205 colon = system: COLO 205 colon
DU-145 prostate = system: DU-145 prostate
EKVX NSCLC = system: EKVX NSCLC
HCC-2998 colon = system: HCC-2998 colon
HCT-116 colon = system: HCT-116 colon
HCT-15 colon = system: HCT-15 colon
HL-60(TB) leukemia = system: HL-60(TB) leukemia
HOP-62 NSCLC = system: HOP-62 NSCLC
HOP-92 NSCLC = system: HOP-92 NSCLC
HS 578T breast = system: HS 578T breast
HT29 colon = system: HT29 colon
IGROV1 ovarian = system: IGROV1 ovarian
K-562 leukemia = system: K-562 leukemia
KM12 colon = system: KM12 colon
LOX IMVI melanoma = system: LOX IMVI melanoma
M14 melanoma = system: M14 melanoma
MALME-3M melanoma = system: MALME-3M melanoma
MCF7 breast = system: MCF7 breast
MDA-MB-231 breast = system: MDA-MB-231 breast
MDA-MB-435 = system: MDA-MB-435
MOLT-4 leukemia = system: MOLT-4 leukemia
NCI-H226 lung = system: NCI-H226 lung
NCI-H23 lung = system: NCI-H23 lung
NCI-H460 lung = system: NCI-H460 lung
NCI-H522 lung = system: NCI-H522 lung
NCI/ADR-RES ovarian = system: NCI/ADR-RES ovarian
OVCAR-3 ovarian = system: OVCAR-3 ovarian
OVCAR-4 ovarian = system: OVCAR-4 ovarian
OVCAR-5 ovarian = system: OVCAR-5 ovarian
OVCAR-8 ovarian = system: OVCAR-8 ovarian
PC-3 prostate = system: PC-3 prostate
RPMI-8226 leukemia = system: RPMI-8226 leukemia
RXF 393 renal = system: RXF 393 renal
SF-268 CNS = system: SF-268 CNS
SF-295 CNS = system: SF-295 CNS
SF-539 CNS = system: SF-539 CNS
SK-MEL-2 melanoma = system: SK-MEL-2 melanoma
SK-MEL-28 melanoma = system: SK-MEL-28 melanoma
SK-MEL-5 melanoma = system: SK-MEL-5 melanoma
SK-OV-3 ovarian = system: SK-OV-3 ovarian
SN12C renal = system: SN12C renal
SNB-19 CNS = system: SNB-19 CNS
SNB-75 CNS = system: SNB-75 CNS
SR leukemia = system: SR leukemia
SW-620 colon = system: SW-620 colon
T-47D breast = system: T-47D breast
TK-10 renal = system: TK-10 renal
U251 CNS = system: U251 CNS
UACC-257 melanoma = system: UACC-257 melanoma
UACC-62 melanoma = system: UACC-62 melanoma
UO-31 renal = system: UO-31 renal

## CCCCCCCCCCCC1=NC(C)(C)CN1CC(C)O (configuration not stated)
786-0 renal
  GI50: 11.8 µM
  TGI: 25.9 µM
A498 renal
  GI50: 10 µM
  TGI: 22.8 µM
A549 NSCLC
  GI50: 6.83 µM
  TGI: 22.6 µM
ACHN renal
  GI50: 10 µM
  TGI: 21.6 µM
BT-549 breast
  GI50: 5.93 µM
  TGI: 22.2 µM
CAKI-1 renal
  GI50: 2.97 µM
  TGI: 12.2 µM
CCRF-CEM leukemia
  GI50: 2.85 µM
  TGI: 11.9 µM
COLO 205 colon
  GI50: 1.68 µM
  TGI: 3.05 µM
DU-145 prostate
  GI50: 11.7 µM
  TGI: 24 µM
EKVX NSCLC
  GI50: 11.2 µM
  TGI: 25.2 µM
HCC-2998 colon
  GI50: 1.69 µM
  TGI: 3.07 µM
HCT-116 colon
  GI50: 2.06 µM
  TGI: 4.9 µM
HCT-15 colon
  GI50: 1.95 µM
  TGI: 4.75 µM
HL-60(TB) leukemia
  GI50: 2.44 µM
  TGI: 5.68 µM
HOP-62 NSCLC
  GI50: 4.75 µM
  TGI: 17.4 µM
HOP-92 NSCLC
  GI50: 2.06 µM
  TGI: 13.6 µM
HS 578T breast
  GI50: 2.6 µM
  TGI: 17.3 µM
HT29 colon
  GI50: 1.43 µM
  TGI: 2.86 µM
IGROV1 ovarian
  GI50: 1.89 µM
  TGI: 4.75 µM
K-562 leukemia
  GI50: 1.62 µM
  TGI: 3.33 µM
KM12 colon
  GI50: 2.25 µM
  TGI: 4.84 µM
LOX IMVI melanoma
  GI50: 1.85 µM
  TGI: 4.42 µM
M14 melanoma
  GI50: 1.62 µM
  TGI: 3.1 µM
MALME-3M melanoma
  GI50: 5.64 µM
  TGI: 20.4 µM
MCF7 breast
  GI50: 2.05 µM
  TGI: 4.77 µM
MDA-MB-231 breast
  GI50: 3.82 µM
  TGI: 13.7 µM
MDA-MB-435
  GI50: 2.05 µM
  TGI: 4.91 µM
MOLT-4 leukemia
  GI50: 2.83 µM
  TGI: 8.51 µM
NCI-H226 lung
  GI50: 13.1 µM
  TGI: 28.6 µM
NCI-H23 lung
  GI50: 4.36 µM
  TGI: 16 µM
NCI-H460 lung
  GI50: 2.35 µM
  TGI: 5.05 µM
NCI-H522 lung
  GI50: 3.42 µM
  TGI: 15.9 µM
NCI/ADR-RES ovarian
  GI50: 11.8 µM
  TGI: 24.1 µM
OVCAR-3 ovarian
  GI50: 3.35 µM
  TGI: 12.7 µM
OVCAR-4 ovarian
  GI50: 10.6 µM
  TGI: 22.4 µM
OVCAR-5 ovarian
  GI50: 12.3 µM
  TGI: 24.8 µM
OVCAR-8 ovarian
  GI50: 8.89 µM
  TGI: 25 µM
PC-3 prostate
  GI50: 4.48 µM
  TGI: 18.6 µM
RPMI-8226 leukemia
  GI50: 1.58 µM
  TGI: 4.18 µM
RXF 393 renal
  GI50: 2.55 µM
  TGI: 6.96 µM
SF-268 CNS
  GI50: 7.35 µM
  TGI: 19.9 µM
SF-295 CNS
  GI50: 4.36 µM
  TGI: 17.8 µM
SF-539 CNS
  GI50: 1.67 µM
  TGI: 3.14 µM
SK-MEL-2 melanoma
  GI50: 2.41 µM
  TGI: 6.12 µM
SK-MEL-28 melanoma
  GI50: 1.75 µM
  TGI: 3.26 µM
SK-MEL-5 melanoma
  GI50: 5.65 µM
  TGI: 18.1 µM
SK-OV-3 ovarian
  GI50: 12.4 µM
  TGI: 24.8 µM
SN12C renal
  GI50: 7.26 µM
  TGI: 20.3 µM
SNB-19 CNS
  GI50: 12.9 µM
  TGI: 25.8 µM
SNB-75 CNS
  GI50: 9.26 µM
  TGI: 21.3 µM
SR leukemia
  GI50: 1.47 µM
  TGI: 3.75 µM
SW-620 colon
  GI50: 1.85 µM
  TGI: 3.91 µM
T-47D breast
  GI50: 3.27 µM
  TGI: 11.2 µM
TK-10 renal
  GI50: 10.3 µM
  TGI: 22.7 µM
U251 CNS
  GI50: 3.3 µM
  TGI: 12 µM
UACC-257 melanoma
  GI50: 2.81 µM
  TGI: 7.49 µM
UACC-62 melanoma
  GI50: 1.78 µM
  TGI: 3.47 µM
UO-31 renal
  GI50: 4.75 µM
  TGI: 18.7 µM

## Nc1nc(-c2ccc(Cl)cc2)cc(-c2ccc(Cl)cc2)c1-c1nc2ccccc2o1
786-0 renal
  GI50: 17.9 µM
  TGI: 36.4 µM
A498 renal
  GI50: 19.6 µM
  TGI: 34.6 µM
A549 NSCLC
  GI50: 15.5 µM
  TGI: 40.7 µM
ACHN renal
  GI50: 17.4 µM
  TGI: 33.2 µM
BT-549 breast
  GI50: 18.1 µM
  TGI: 33.4 µM
CAKI-1 renal
  GI50: 20 µM
  TGI: 35.9 µM
CCRF-CEM leukemia
  GI50: 11.4 µM
  TGI: 34.1 µM
COLO 205 colon
  GI50: 21 µM
  TGI: 39.5 µM
DU-145 prostate
  GI50: 17.2 µM
  TGI: 36.6 µM
EKVX NSCLC
  GI50: 16.3 µM
  TGI: 31.4 µM
HCC-2998 colon
  GI50: 16.9 µM
  TGI: 33.3 µM
HCT-116 colon
  GI50: 14.8 µM
  TGI: 30.5 µM
HCT-15 colon
  GI50: 17.2 µM
  TGI: 34.8 µM
HL-60(TB) leukemia
  GI50: 17.9 µM
  TGI: 37.2 µM
HOP-62 NSCLC
  GI50: 13 µM
  TGI: 27.1 µM
HOP-92 NSCLC
  GI50: 6.24 µM
  TGI: 21.2 µM
HS 578T breast
  GI50: 23.5 µM
  TGI: 53.1 µM
HT29 colon
  GI50: 11.1 µM
  TGI: 36.1 µM
IGROV1 ovarian
  GI50: 16.1 µM
  TGI: 34.3 µM
K-562 leukemia
  GI50: 13.7 µM
  TGI: 52.3 µM
KM12 colon
  GI50: 12.2 µM
  TGI: 27.2 µM
LOX IMVI melanoma
  GI50: 18.7 µM
  TGI: 36.5 µM
M14 melanoma
  GI50: 17.4 µM
  TGI: 34.4 µM
MALME-3M melanoma
  GI50: 14.4 µM
  TGI: 29.9 µM
MCF7 breast
  GI50: 10.6 µM
  TGI: 35.7 µM
MDA-MB-231 breast
  GI50: 15.8 µM
  TGI: 31.3 µM
MDA-MB-435
  GI50: 18.3 µM
  TGI: 36.1 µM
MOLT-4 leukemia
  GI50: 12.1 µM
  TGI: 27.4 µM
NCI-H226 lung
  GI50: 19.1 µM
  TGI: 34.9 µM
NCI-H23 lung
  GI50: 17.8 µM
  TGI: 37.3 µM
NCI-H460 lung
  GI50: 16.8 µM
  TGI: 39.6 µM
NCI-H522 lung
  GI50: 15 µM
  TGI: 30.5 µM
NCI/ADR-RES ovarian
  GI50: 14.5 µM
  TGI: 30.9 µM
OVCAR-3 ovarian
  GI50: 18.6 µM
  TGI: 35.5 µM
OVCAR-4 ovarian
  GI50: 18.5 µM
  TGI: 35.5 µM
OVCAR-5 ovarian
  GI50: 20.7 µM
  TGI: 39.1 µM
OVCAR-8 ovarian
  GI50: 18.4 µM
  TGI: 36.3 µM
PC-3 prostate
  GI50: 13.2 µM
  TGI: 27.1 µM
RPMI-8226 leukemia
  GI50: 13.7 µM
  TGI: 28.3 µM
RXF 393 renal
  GI50: 14.1 µM
  TGI: 33.5 µM
SF-268 CNS
  GI50: 14.5 µM
  TGI: 34.1 µM
SF-295 CNS
  GI50: 21.7 µM
  TGI: 40.3 µM
SF-539 CNS
  GI50: 19.9 µM
  TGI: 35.7 µM
SK-MEL-2 melanoma
  GI50: 16.6 µM
  TGI: 33.4 µM
SK-MEL-28 melanoma
  GI50: 17.4 µM
  TGI: 34.3 µM
SK-MEL-5 melanoma
  GI50: 15.4 µM
  TGI: 29.9 µM
SK-OV-3 ovarian
  GI50: 22.4 µM
  TGI: 41 µM
SN12C renal
  GI50: 12.4 µM
  TGI: 26.1 µM
SNB-19 CNS
  GI50: 19.6 µM
  TGI: 41.4 µM
SNB-75 CNS
  GI50: 15 µM
  TGI: 30 µM
SR leukemia
  GI50: 14.3 µM
  TGI: 30.5 µM
SW-620 colon
  GI50: 17.5 µM
  TGI: 33.3 µM
T-47D breast
  GI50: 13.4 µM
  TGI: 29.6 µM
TK-10 renal
  GI50: 20 µM
  TGI: 41.9 µM
U251 CNS
  GI50: 18.5 µM
  TGI: 36 µM
UACC-257 melanoma
  GI50: 18.4 µM
  TGI: 37.8 µM
UACC-62 melanoma
  GI50: 18.9 µM
  TGI: 34.2 µM
UO-31 renal
  GI50: 14.8 µM
  TGI: 29.9 µM
